Data from paper PMC12385147, “Discovery of Novel 2-Substituted Aniline Pyrimidine Based Derivatives as Potent Mer/c-Met Dual Inhibitors with Improvement Bioavailability” (Biomolecules, 2025).
Where two headings read alike, the source gives them in different places.

Experiments:
c-Met kinase = target: T1, c-Met kinase (Homo sapiens, UniProt P08581); test: c-Met kinase inhibition assay (TK-Sub-Biotin / cryptate detection); assay type: biochemical; details: means from three independent experiments
T1 construct: purchased Invitrogen (Shanghai, China)

[1] = Liver microsome stability assay; assay type: in vitro ADME, human
HepG2 = test: Antiproliferation CCK-8 assay, HepG2; assay type: cell-based; details: Homo sapiens, CCK-8, 72 h
Protocol: (§1) The HepG2, MDA-MB-231, and HCT116 cell lines were derived from our own laboratory (the laboratory of our collaborator, Dr. Xiaolei Zhou, at College of Food Science and Biology in Hebei University of Science and Technology). The antiproliferative activities were assessed using the CCK-8 assay. Cell viability was measured according to the manufacturer’s instructions for the Cell Counting Kit-8 (Meilunbio, Dalian, China). In this assay, 2.5 × 10^3 cells per well were seeded into 96-well plates.
(§2) After an initial 12 h incubation, cancer cells were exposed to varying concentrations of compound 17c for 72 h. Following CCK-8 solution addition and 2 h incubation, the absorbance at 450 nm was measured using a BioTek Synergy HTX microplate reader. Experiments included triplicate wells with three independent replicates. The IC50 values for compound 17c were derived from an analysis of the dose–response curves in GraphPad PRISM 9.5.

HCT116 = test: Antiproliferation CCK-8 assay, HCT116; assay type: cell-based; details: for IC50: Homo sapiens, HCT-116
Protocol: as §1, §2

CAKI-1 renal cancer = test: Antiproliferation CCK-8 assay, CAKI-1; assay type: cell-based
[2] = test system: Mer kinase phosphorylation; test: Western blot, Mer phosphorylation in HCT116 cells; assay type: cell-based, human; details: 2.5 μM, 24 h, compared to the positive control
Protocol: (§3) Western blot assay was performed according to established protocols. HCT colon cancer cells were exposed to the specified concentration of compound 17c for 24 h, after which whole cell lysates were prepared using RAPI cell lysis buffer (Beyotime Institute of Biotechnology, Shanghai, China). Primary antibodies, purchased from Beyotime Institute of Biotechnology, were diluted at a ratio of 1:2000. The protein bands on polyvinylidene fluoride membranes were visualized and analyzed using Glyco Band-Scan Software Version 4.50. The antibody details are as follows:
Name: Phospho-MER/TYRO3 (Tyr753/Tyr685) antibody, Species: Rabit, Sequence: synthesized peptide derived from human MER/TYRO3 around the Phosphorylation site of Tyr753/Tyr685, Dilution: 1:2000, RRID number: AB_2840500, Catalogue number: AF8443, Supplier: Affinity Biosciences (Beijing, China).

[3] = test system: c-Met kinase phosphorylation; test: Western blot, c-Met phosphorylation in HCT116 cells; assay type: cell-based, human; details: 2.5 μM, 24 h, compared to the positive control
Protocol: as §3
Name: Phospho-c-Met (Tyr1234) antibody, Species: Rabit, Sequence: synthesized peptide derived from human c-Met around the Phosphorylation site of Tyr1234, Dilution: 1:2000, RRID number: AB_2834564, Catalogue number: AF3129, Supplier: Affinity Biosciences (Beijing, China).

T1 sequence (P08581 25-1390): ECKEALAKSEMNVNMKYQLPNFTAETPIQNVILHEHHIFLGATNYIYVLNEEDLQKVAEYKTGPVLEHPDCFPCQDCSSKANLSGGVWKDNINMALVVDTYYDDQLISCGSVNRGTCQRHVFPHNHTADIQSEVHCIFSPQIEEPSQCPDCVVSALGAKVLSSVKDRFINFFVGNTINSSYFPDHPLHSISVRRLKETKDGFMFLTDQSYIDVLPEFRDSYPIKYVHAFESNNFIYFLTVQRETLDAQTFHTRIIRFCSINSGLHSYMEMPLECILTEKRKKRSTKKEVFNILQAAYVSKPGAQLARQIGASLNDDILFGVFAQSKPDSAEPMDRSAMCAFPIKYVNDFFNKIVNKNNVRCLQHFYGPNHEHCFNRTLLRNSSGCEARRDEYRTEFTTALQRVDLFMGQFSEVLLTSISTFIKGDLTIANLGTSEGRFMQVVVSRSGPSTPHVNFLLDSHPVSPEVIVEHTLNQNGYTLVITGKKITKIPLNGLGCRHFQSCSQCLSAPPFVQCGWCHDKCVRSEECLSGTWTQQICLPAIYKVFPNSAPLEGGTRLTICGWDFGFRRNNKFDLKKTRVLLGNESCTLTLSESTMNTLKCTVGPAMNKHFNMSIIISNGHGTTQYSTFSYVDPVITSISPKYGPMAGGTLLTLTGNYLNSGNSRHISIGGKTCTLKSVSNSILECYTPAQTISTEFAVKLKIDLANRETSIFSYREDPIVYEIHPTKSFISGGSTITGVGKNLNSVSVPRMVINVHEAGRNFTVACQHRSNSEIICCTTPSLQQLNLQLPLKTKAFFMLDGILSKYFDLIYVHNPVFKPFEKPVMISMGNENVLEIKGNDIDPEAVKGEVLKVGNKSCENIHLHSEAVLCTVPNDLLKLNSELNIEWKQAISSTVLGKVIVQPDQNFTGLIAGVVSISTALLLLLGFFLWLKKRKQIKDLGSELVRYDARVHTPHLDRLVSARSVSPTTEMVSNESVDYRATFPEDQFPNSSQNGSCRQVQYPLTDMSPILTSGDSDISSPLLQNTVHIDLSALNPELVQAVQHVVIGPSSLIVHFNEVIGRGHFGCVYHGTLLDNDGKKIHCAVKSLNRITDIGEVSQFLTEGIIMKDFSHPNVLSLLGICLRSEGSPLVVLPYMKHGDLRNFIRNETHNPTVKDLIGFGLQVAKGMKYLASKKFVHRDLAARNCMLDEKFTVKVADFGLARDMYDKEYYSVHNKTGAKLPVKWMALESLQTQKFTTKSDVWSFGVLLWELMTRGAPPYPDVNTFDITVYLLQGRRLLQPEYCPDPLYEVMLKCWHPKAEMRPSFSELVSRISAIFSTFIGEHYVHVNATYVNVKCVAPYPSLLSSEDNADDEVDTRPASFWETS

IC50 (c-Met kinase): 26.1 ± 7.7 nM
CL (intrinsic clearance) ([1]; human liver microsomes): 23.6 µL/min/mg
microsomal CLint ([1]; human, liver microsomes, pH 7.4, human liver microsomes, read-out: CL (intrinsic clearance)): 26 µL/min/mg
IC50 (HepG2): 460 ± 60 nM
IC50 (HCT116; CCK-8, 72 h, read-out: IC50 HCT116): 3790 ± 1090 nM
IC50 (HCT116; CCK-8, read-out: IC50 HCT116 cells): 460 ± 60 nM
IC50 (CAKI-1 renal cancer; Homo sapiens, CAKI-1, CCK-8, read-out: IC50 CAKI-1 cells): 2310 ± 670 nM
Structure (SMILES): Cc1c(C(=O)Nc2ccc(Oc3ccnc(Nc4cccc(OC5CCN(C)CC5)c4)n3)cc2)c(=O)n(-c2ccccc2)n1C [compound 17c, 1,5-dimethyl-N-(4-((2-((3-((1-methylpiperidin-4-yl)oxy)phenyl)amino)pyrimidin-4-yl)oxy)phenyl)-3-oxo-2-phenyl-2,3-dihydro-1H-pyrazole-4-carboxamide]
fold improvement over cabozantinib (HCT116; HCT116 cells): 17.1 fold
fold enhancement compared to cabozantinib (CAKI-1 renal cancer; CAKI-1 cells): 2.0 fold
inhibition of Mer kinase phosphorylation [2]: significantly inhibited the phosphorylation
inhibition of c-Met kinase phosphorylation [3]: significantly inhibited the phosphorylation
